The target in series [1] is T1, VvGT16 (Vitis vinifera, UniProt F6HTJ4). Description: Substrate screening, radiochemical analysis with UDP-[14C]glucose. The format is biochemical. The method, then:
(§1) In the initial screening, each reaction mixture (200 μL in total) contained Tris-HCl buffer (100 mM, pH 8, 10 mM 2-mercaptoethanol), 37 pmol UDP-[^14C]glucose (0.01 μCi, Biotrend, Köln, Germany), substrate (50 μL of a 1 mg/mL stock solution) and purified protein (0.5-0.8 μg/μL). […] The organic phase was mixed with 2 mL Pro Flow P+ cocktail (Meridian Biotechnologies Ltd., Epsom, UK) and radioactivity was determined by liquid scintillation counting (LSC, Tri-Carb 2800TR, Perkin Elmer, Waltham Mass., USA). Additionally, negative controls without substrate were performed.
(§2) The recombinant proteins were expressed with an N-terminal GST-tag, affinity purified and verified by SDS-PAGE and Western Blot using GST-specific antibody.

Series [2] deals with T2, VvGT14a (Vitis vinifera, UniProt F6H0R6). The description is as above. The format is biochemical. As for the experimental part: as §1, §2
A further series concerns the target VvGT15c (Vitis vinifera, UniProt A0ABY9C1E0). The series is described as above. The format is biochemical. As for the experimental part: as §1, §2
The next series concerns the target VvGT15a (Vitis vinifera, UniProt A0ABY9C1E0). Described as above. The series is classed as biochemical. As for the experimental part:
as §1, §2

Series [3] has as its target T2, VvGT14a.
Series [4] concerns the target T1, VvGT16. The note with it: UDP-glucose fixed 512.5 μM (for UDP-glucose: geraniol fixed 1.25 mM), Tris-HCl pH 8.5, 30° C. As for the experimental part:
The measurements were performed under the following conditions. […] Radioactivity was determined by LSC.

The next series addresses VvGT15b (Vitis vinifera, UniProt A0ABY9C1E0). The series can be described thus: Substrate screening, radiochemical analysis with UDP-[14C]glucose. The format is biochemical. As for the experimental part:
as §1, §2

The next series has as its system CaUGT2. The following applies: CaUGT2, natural substrate; cited from earlier work.
The subject of a further series is VvGT5. The following applies: cited from earlier work.
In another series the test system is VvGT6. The note with it: cited from earlier work.
Another series has as its target T3, VvGT1 (Vitis vinifera, UniProt P51094).
T3 sequence (P51094 1-456): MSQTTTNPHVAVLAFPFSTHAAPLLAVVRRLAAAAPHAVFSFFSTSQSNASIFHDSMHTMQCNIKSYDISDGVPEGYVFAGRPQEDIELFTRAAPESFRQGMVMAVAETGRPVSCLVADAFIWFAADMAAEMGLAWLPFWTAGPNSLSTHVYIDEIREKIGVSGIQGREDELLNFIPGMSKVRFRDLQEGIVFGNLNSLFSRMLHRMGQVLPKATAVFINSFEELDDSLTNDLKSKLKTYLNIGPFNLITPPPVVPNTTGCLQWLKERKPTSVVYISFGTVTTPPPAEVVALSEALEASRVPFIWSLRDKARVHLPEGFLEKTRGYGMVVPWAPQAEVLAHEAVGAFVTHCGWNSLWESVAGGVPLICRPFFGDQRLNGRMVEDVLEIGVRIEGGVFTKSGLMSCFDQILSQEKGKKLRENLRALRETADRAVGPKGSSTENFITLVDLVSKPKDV
The following applies: VvGT1, natural substrate; cited from earlier work.

The next series deals with UGT71G1. The note with it: cited from earlier work.
Substrate in series [5]: CC(C)=CCC/C(C)=C\CO
The series can be described thus: purified protein, by the assay type. The note with it: UDP-glucose fixed 833 μM (for UDP-glucose: geraniol fixed 1.25 mM), Tris-HCl pH 7.5, 30° C. The format is biochemical, Vitis vinifera.

Substrate in series [6]: CC(C)=CCC[C@H](C)CCO
Description: purified protein, by the assay type. The note with it: UDP-glucose fixed 833 μM (for UDP-glucose: geraniol fixed 1.25 mM), Tris-HCl pH 7.5, 30° C.

Where two headings read alike, the source gives them in different places.

T2 sequence (F6H0R6 entry or part of it): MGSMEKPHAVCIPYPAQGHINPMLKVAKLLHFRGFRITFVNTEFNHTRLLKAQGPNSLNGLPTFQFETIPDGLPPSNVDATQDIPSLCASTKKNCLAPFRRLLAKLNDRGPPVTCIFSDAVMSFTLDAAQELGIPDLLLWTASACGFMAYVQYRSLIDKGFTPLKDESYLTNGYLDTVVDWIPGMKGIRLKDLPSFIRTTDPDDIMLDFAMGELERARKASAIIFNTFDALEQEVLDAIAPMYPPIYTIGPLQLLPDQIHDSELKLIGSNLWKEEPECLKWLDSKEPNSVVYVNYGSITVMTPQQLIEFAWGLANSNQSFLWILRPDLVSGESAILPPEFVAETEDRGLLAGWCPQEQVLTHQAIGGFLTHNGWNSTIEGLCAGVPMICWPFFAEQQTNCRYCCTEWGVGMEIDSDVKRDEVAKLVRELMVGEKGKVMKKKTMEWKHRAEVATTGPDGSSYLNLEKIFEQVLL
T1 sequence (F6HTJ4 entry or part of it): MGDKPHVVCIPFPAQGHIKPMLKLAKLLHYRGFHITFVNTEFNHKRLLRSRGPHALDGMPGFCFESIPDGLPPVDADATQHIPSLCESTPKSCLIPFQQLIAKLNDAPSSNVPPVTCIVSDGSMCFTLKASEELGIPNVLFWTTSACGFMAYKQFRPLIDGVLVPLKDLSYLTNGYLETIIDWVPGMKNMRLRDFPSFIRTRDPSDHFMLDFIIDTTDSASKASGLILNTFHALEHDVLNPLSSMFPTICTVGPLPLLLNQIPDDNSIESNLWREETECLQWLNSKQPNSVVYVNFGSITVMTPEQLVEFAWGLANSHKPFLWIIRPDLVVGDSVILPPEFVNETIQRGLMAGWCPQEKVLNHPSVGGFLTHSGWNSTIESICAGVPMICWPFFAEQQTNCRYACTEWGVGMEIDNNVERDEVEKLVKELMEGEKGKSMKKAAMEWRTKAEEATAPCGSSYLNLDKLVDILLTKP

For `CC(C)=CCO` [3-methyl-2-butenol], the “conversion as substrate (in words)” value is recorded as “transformed” on VvGT16 [1] and “catalytic activity” on VvGT14a [2].
For the molecule `C=C(C)CCO` [3-methyl-3-butenol], the “conversion as substrate (in words)” value on VvGT14a [2] is given as “catalytic activity”.
`C=CC(C)(O)CC/C=C(\C)CO` (stereo not shown) [8-hydroxylinalool]: the figures for the “conversion as substrate (in words)” value at VvGT15c, at VvGT14a [2] and on VvGT15a were “able to use”, “catalytic activity” and “able to use”, respectively.
By Km is commonly meant the concentration of substrate that gives half-maximal velocity. One may read the kcat as the number of substrate molecules converted per active site and unit of time at saturation. In the case of `CC(C)=CCC/C(C)=C\CO` [Nerol, (Z)-3,7-dimethyl-2,6-octadien-1-ol], the “kcat/KM of VvGT14a higher than the value for UGT85B1 from Sorghum bicolor” value on VvGT14a [3] (VvGT14a versus UGT85B1) was 40 fold. The Michaelis-Menten constant (Km) at VvGT14a [3] (pH 8.5) is 10 µM. Also, the kcat came out at 0.02 s⁻¹ on VvGT14a [3] (pH 8.5) and 0.009 s⁻¹ on VvGT16 [4]. Further, the “conversion as substrate (in words)” value on VvGT16 [1] is listed as “transformed”; at VvGT15b, “glucosylated primarily”; at VvGT15c, “glucosylated primarily”; on VvGT15a it was “glucosylated primarily”.
Turning to `OCc1ccccc1` [benzyl alcohol], the “conversion as substrate (in words)” value is “highest relative activity” on VvGT16 [1] and “catalytic activity” at VvGT14a [2].
Turning to `CC/C=C\CCO` [cis 3-hexenol], the “conversion as substrate (in words)” value on VvGT16 [1] is reported as “transformed”; on VvGT14a [2], “catalytic activity”.
On to `COc1cc(/C=C/C(=O)CC(=O)/C=C/c2ccc(O)c(OC)c2)ccc1O` [curcumin], for which, in the series on CaUGT2, the Km is 43.9 µM and the kcat was 0.0165 s⁻¹.
Turning to `C=CCc1ccc(O)c(OC)c1` [eugenol], the “conversion as substrate (in words)” value on VvGT14a [2] is “catalytic activity”.
Regarding `CC(C)=CCCC(C)=CCCC(C)=CCO` [farnesol], the “conversion as substrate (in words)” value at VvGT14a [2] is recorded as “catalytic activity”; at VvGT15a it was “low activity”.
Turning to `CCCCCCO` [hexanol], the “conversion as substrate (in words)” value at VvGT15b, on VvGT15c and at VvGT15a was “glucosylated primarily” each time.
Regarding `N#CC(O)c1ccccc1` (stereo not shown) [mandelonitrile], the “conversion as substrate (in words)” value was “not accepted at all” on VvGT15b; “not accepted at all” on VvGT15c; “catalytic activity” on VvGT14a [2]; “poor substrate” on VvGT14a [2] (listed as Mandelonitrile); “not accepted at all” at VvGT15a.
In the case of `CCCCCCCCO` [octanol], the “conversion as substrate (in words)” value on VvGT15b, on VvGT15c and at VvGT15a was “glucosylated primarily” in each case.
Take `O=c1c(O)c(-c2ccc(O)c(O)c2)oc2cc(O)cc(O)c12` [quercetin]: the Km with VvGT5 was 5.6 µM; in the series with VvGT6, 9.24 µM; on VvGT1, 31 µM; in the series on UGT71G1, 57 µM. The kcat in the series on VvGT5 was 7.16 s⁻¹; with VvGT6 it was 0.76 s⁻¹; at VvGT1, 0.075 s⁻¹; in the series on UGT71G1, 0.0175 s⁻¹.
For the molecule `CCC/C=C/CO` [trans 2-hexenol], the “conversion as substrate (in words)” value on VvGT16 [1] is given as “transformed”; at VvGT15c, “able to use”; on VvGT14a [2], “catalytic activity”; at VvGT15a, “able to use”.

B1: VvGT15a (Vitis vinifera) (protein)
chain: MPRRVVLVPCPFQGHINPMLQLGAILHSRGFSITVAHTQYNSPDPSNHPDFSFLPIPDGLSDGQNFASLLNLVLAANVNCESPLREYLAEKQEQHGDIACIIHDITMYFAEAVANHLKVPSINLVTSNVSTTIAHNAFPSLLEKGHIPLQGSTLHDPVPELHPLRFKDLPISRLGDLEVFFQILVNMYKKKFSSPIIWNTMDCLEQSSLTQRQQQLQVPFFPIGPLHKLAPPSSSSLLEEDSSCITWLDKQSPKSVIYVSWGSLACMDAKDLAEVAWGLANSNQPFLWVVRPGSVRGSQWIEQLPETFMDTVGERCHIVKWAPQKEVLGHRAVGGFWSHCGWNSTLESISEGVPMICRPYSGDQRVNTRYISHVWKVGLELESDELERVEIERAVRRLMVDGEGEEMRQRAMELKEKVEICTSEGGSSNRALKELVEYISSF
For orientation: kcat/Km means the second-order rate constant that governs catalysis at low substrate concentration. For B1, in [5] (other: VvGT15a), the Km turned out to be 48 ± 1.7 µM, the kcat was 0.04 s⁻¹ and the kcat/Km stood at 700 M⁻¹ s⁻¹. In series [6] (other: VvGT15a), the Km stood at 29 ± 3.0 µM, the kcat is 0.02 s⁻¹ and the kcat/Km was found to be 900 M⁻¹ s⁻¹.

B2: VvGT15c (Vitis vinifera) (protein)
chain: MPRRVVLVPCPFQGHINPMLQLGAILHSRGFSITVAHTQYNSPDPSNHPDFSFLPIPDGLSDGQNFASLLNLVLAANVNCESPLRECLAEKQEQHGDIACIIHDITMYFAEAVANHLKVPSINLVTSNVSTTIAHNAFPSLLEKGHIPLQGSTLHDPVPELHPLRFKDLPISRLGDLEAFFQILVNMYKKKFSSPIIWNTMDCLEQSSLTQRQQQLQVPFFPIGPLHKLAPPSSSSLLEEDSSCITWLDKHSPKSVIYVSWGSLACMDAKDLAEVAWGLANSNQPFLWVVRPGSVRGSQWIEQLPETFMDTVGERCHIVKWAPQKEVLGHRAVGGFWSHCGWNSTLESISEGVPMICRPYSGDQRVNTRYISHVWKVGLELESDELERVEIERAVRRLMVDGEGEEMRQRAMELKEKVDICTSEGGSSNRALKELVEYISSF
For the molecule B2, in series [5] (other: VvGT15c), the Km turned out to be 28 ± 0.9 µM, the kcat was 0.06 s⁻¹ and the kcat/Km is 2200 M⁻¹ s⁻¹. Moreover, in series [6] (other: VvGT15c), the Km turned out to be 20 ± 1.6 µM, the kcat was 0.03 s⁻¹ and the kcat/Km was found to be 1800 M⁻¹ s⁻¹.

B3: VvGT15b (Vitis vinifera) (protein)
chain: MPRRVVLVPCPFQGHINPMLQLGAILHSRGFSITVAHTQYNSPDPSNHPDFSFLPIPDGLSDGQNFASLLNLVLAANVNCESPLRECLAEKQEQHGDIACIIHDITMYFAEAVANHLKVPSINLVTSNVSTTIAHNAFPSLLEKGHIPLQGSTLHDPVPELHPLRFKDLPISRLGDLEAFFQILVNMYKKKFSSPIIWNTMDCLEQSSLTQRQQQLQVPFFPIGPLHKLAPPSSSSLLEEDSSCITWLDKHSPKSVIYVSWGSLACMDAKDLAEVAWGLANSNQPFLWVVRPGSVRGSQWIEQLPETFMDTVGERCHIVKWAPQKEVLGHRAVGGFWSHCGWNSTLESISEGVPMICRPYSGDQRVNTRYISHVWKVGLELESDELERVEIERAVRRLMVDGEGEEMRQRAMELKEKVDICTSEGGSSNRALKELVEYISSF
Take B3: in [5] (other: VvGT15b), the Km worked out at 40 ± 3.7 µM, the catalytic constant (kcat) was 0.03 s⁻¹ and the kcat/Km is 800 M⁻¹ s⁻¹. Besides, in series [6] (other: VvGT15b), the Km is 55 ± 1.3 µM, the kcat was found to be 0.03 s⁻¹ and the kcat/Km was determined as 600 M⁻¹ s⁻¹.

(Values after patent publication US20170204380A1, “GLYCOSYL TRANSFERASES AND THEIR USES” (TECHNISCHE UNIVERSITAT MUNCHEN, priority 2014, published 2017).)
